Laboratory results as given in PubChem BioAssay (NCI).
Where “and” joins values, the source holds several entries; their conditions need not be identical. Equal values may be shown once.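 How tested: cells in 96-well plates exposed to compound for 48 hours at five concentrations. GI50 marks 50% less growth. The concentration for full growth arrest is given as TGI.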 Where a SMILES comes first, the peptide text is derived from it. [ ]: non-standard residue; d: D form. pGlu = O=C1CC[CH](C(=O)O)N1

What was measured:
Test in all cases: DTP human tumour cell line panel, 48 h
A498 renal = test system: A498 renal
EKVX NSCLC = test system: EKVX NSCLC
HCT-116 colon = test system: HCT-116 colon
M14 melanoma = test system: M14 melanoma
MOLT-4 leukemia = test system: MOLT-4 leukemia
SK-MEL-2 melanoma = test system: SK-MEL-2 melanoma
UO-31 renal = test system: UO-31 renal
ACHN renal = test system: ACHN renal
HCT-15 colon = test system: HCT-15 colon
HOP-92 NSCLC = test system: HOP-92 NSCLC

| Compound | TGI (A498 renal) | TGI (EKVX NSCLC) | TGI (HCT-116 colon) | TGI (M14 melanoma) | TGI (MOLT-4 leukemia) | TGI (SK-MEL-2 melanoma) | TGI (UO-31 renal) | TGI (ACHN renal) | TGI (HCT-15 colon) | TGI (HOP-92 NSCLC) | GI50 (A498 renal) | GI50 (ACHN renal) | GI50 (EKVX NSCLC) | GI50 (HCT-116 colon) | GI50 (HCT-15 colon) | GI50 (HOP-92 NSCLC) | GI50 (M14 melanoma) | GI50 (SK-MEL-2 melanoma) | GI50 (UO-31 renal) | GI50 (MOLT-4 leukemia) |
| --- | --- | --- | --- | --- | --- | --- | --- | --- | --- | --- | --- | --- | --- | --- | --- | --- | --- | --- | --- | --- |
| COc1c(-c2cccs2)oc2c(CC(=O)O)cccc2c1=O | > 100 µM | > 100 µM | > 100 µM | > 100 µM | > 100 µM | > 100 µM | 48.9 µM | – | – | – | – | – | – | – | – | – | – | – | – | – |
| O=C(O)CN(CC(=O)O)Cc1ccn(-c2cccc(-n3ccc(CN(CC(=O)O)CC(=O)O)n3)n2)n1 | – | > 100 µM | > 100 µM | > 100 µM | > 100 µM | > 100 µM | > 100 µM | > 100 µM | > 100 µM | > 100 µM | – | – | – | – | – | – | – | – | – | – |
| CC(C)(C)c1cc(/C=C/C(=O)CC(=O)/C=C/c2cc(C(C)(C)C)c(O)c(C(C)(C)C)c2)cc(C(C)(C)C)c1O | – | > 50 µM | > 50 µM | > 50 µM | – | > 50 µM | > 50 µM | > 50 µM | > 50 µM | – | – | – | – | – | – | – | – | – | – | – |
| CCCCNC(=S)c1ccc(OC(=O)Nc2ccc(Cl)cc2)cc1 | > 100 µM | > 100 µM | > 100 µM | > 100 µM | > 100 µM | > 100 µM | > 100 µM | > 100 µM | > 100 µM | – | – | – | – | – | – | – | – | – | – | – |
| N#CCOc1cccc(C2(N3CC=CCC3)CCCCC2)c1 | > 100 µM | > 100 µM | > 100 µM | > 100 µM | > 100 µM | > 100 µM | > 100 µM | > 100 µM | > 100 µM | – | – | – | – | – | – | – | – | – | – | – |
| CC1(C)O[C@H]2OC(CO)C(OS(C)(=O)=O)[C@H]2O1 (some centres undefined) | > 100 µM | > 100 µM | > 100 µM | > 100 µM | – | > 100 µM | > 100 µM | > 100 µM | > 100 µM | > 100 µM | – | – | – | – | – | – | – | – | – | – |
| CCCC(=O)Nc1cc(/C=C/C(=O)N2CC(CCl)c3c2cc([N+](=O)[O-])c2ccccc32)n(C)c1 (centres undefined) | > 87.9 µM | – | > 100 µM | > 100 µM | > 100 µM | > 100 µM | > 100 µM | > 100 µM | > 100 µM | > 100 µM | – | – | – | – | – | – | – | – | – | – |
| O=C1C2=C(CCCCC2)C2CCCCC12O (centres undefined) | – | > 100 µM | > 100 µM | > 100 µM | > 100 µM | > 100 µM | > 100 µM | > 100 µM | – | > 100 µM | – | – | – | – | – | – | – | – | – | – |
| CC(NC(=O)C(Cc1cnc[nH]1)NC(=O)C1CCC(=O)N1)C(N)=O (stereo not drawn) ([pGlu]-His-Ala-NH2; configuration not given here) | – | > 100 µM | > 100 µM | > 100 µM | > 100 µM | – | > 100 µM | > 100 µM | – | > 100 µM | – | – | – | – | – | – | – | – | – | – |
| Cc1nc2c(Cl)cc(Cl)cc2c(Cl)c1CCCl | > 100 µM | > 100 µM | > 100 µM | > 100 µM | > 100 µM | > 100 µM | > 100 µM | > 100 µM | > 100 µM | – | – | – | – | – | – | – | – | – | – | – |
| Cn1cc(-c2nc(-c3c[nH]c4ccncc34)cs2)c2cc(F)ccc21 | 3.43 µM | 3.32 µM | 3.28 µM | 3.37 µM | – | 3.58 µM | 2.92 µM | 3.12 µM | 2.71 µM | 3.42 µM | 1800 nM | 1740 nM | 1720 nM | 1630 nM | 1330 nM | 1650 nM | 1790 nM | 1920 nM | 1.57 µM | – |
| C=C1C(=O)O[C@@H]2OC3(C)CCC4C(C)CCC1C42OO3 (some centres undefined) | 6.56 µM and 10.6 µM | 24.7 µM | 10.2 µM and 3.52 µM | – | 5.96 µM and 5.53 µM | 15.4 µM and 5.51 µM | 17.5 µM and 22.1 µM | – | 9.95 µM and 4.02 µM | 6.5 µM and 4.48 µM | 2570 nM | – | – | 2470 nM | 2300 nM | 2540 nM | – | 3790 nM | 4.57 µM | 2230 nM |
| CO[C@H]1C[C@H](n2cc(C)c(=O)[nH]c2=O)O[C@@H]1CO | > 100 µM | > 100 µM | > 100 µM | > 100 µM | > 100 µM | – | > 100 µM | > 100 µM | > 100 µM | – | – | – | – | – | – | – | – | – | – | – |
| COc1ccc(NCc2cnc3nc(N)nc(N)c3c2C)cc1 | > 100 µM | > 100 µM | – | > 100 µM | > 100 µM | > 100 µM | > 100 µM | > 100 µM | > 100 µM | > 89.5 µM | – | – | – | – | – | – | – | – | – | – |
| COC(=O)c1c(O)ccc2c1c1c(n2Cc2ccccc2OC)C(=O)c2ccccc2C1 | > 100 µM | – | > 100 µM | > 100 µM | > 100 µM | > 100 µM | > 100 µM | – | > 100 µM | – | – | – | – | – | – | – | – | – | – | – |
| O=C(Cc1ccccc1)N=Nc1c(O)[nH]c2ccccc12 | 80.4 µM | > 100 µM | > 100 µM | > 100 µM | > 100 µM | > 100 µM | > 100 µM | > 100 µM | > 100 µM | – | – | – | – | – | – | – | – | – | – | – |
| Cc1cc(C)c2c(=N)c3ccccc3n(CCCCCCn3c4ccccc4c(=N)c4c(C)cc(C)nc43)c2n1 | 3.12 µM | 3.29 µM | 0.353 µM | 3.07 µM | – | 2.97 µM | 2.91 µM | 2.91 µM | 0.343 µM | 2.94 µM | – | – | – | – | – | – | – | – | – | – |
| CCCCCCCC(=O)OCC(C[As](=O)(O)O)OC(=O)CCCCCCC (centres undefined) | 33.2 µM | 33.8 µM | 30.3 µM | 28.5 µM | 51.9 µM | – | 28.2 µM | 30.6 µM | 28.5 µM | 25.4 µM | – | – | – | – | – | – | – | – | – | – |
| CC(C)=CCCC1(Sc2ccccc2)C(=O)OCC1C=C(C)C (centres undefined) | > 100 µM | 79.7 µM | 45.8 µM | 52.1 µM | 20.4 µM | 55.8 µM | > 100 µM | > 100 µM | > 100 µM | – | – | – | – | – | – | – | – | – | – | – |
| CCOC(=O)c1nc2cc(C(F)(F)F)ccc2nc1Nc1ccc(F)cc1 | > 100 µM | > 100 µM | > 100 µM | > 100 µM | – | > 100 µM | – | – | > 100 µM | 49.6 µM | – | – | – | – | – | – | – | – | – | – |
| CC1CC(=O)Nc2ccc(N=NN(C)C)cc2N1C=O (centres undefined) | – | > 100 µM | > 100 µM | > 100 µM | > 100 µM | > 100 µM | > 100 µM | > 100 µM | > 100 µM | – | – | – | – | – | – | – | – | – | – | – |
| COc1cc(/C=C2\N=C(C)N(n3c(-c4ccccc4)nc4ccccc4c3=O)C2=O)cc(OC)c1OC | > 100 µM | > 100 µM | > 100 µM | > 100 µM | > 100 µM | – | > 100 µM | > 100 µM | > 100 µM | – | – | – | – | – | – | – | – | – | – | – |
